Reference: patent publication US20230265151A1, “GIP/GLP1 CO-AGONIST COMPOUNDS” (priority 2020, published 2023)
Where two headings read alike, the source gives them in different places. *1 amine or outer side, *2 acyl side, *3 side chain or, on linkers, in order; H or OH if unused. Where a SMILES comes first, the peptide text is derived from it. Side-chain parts run from the residue outwards. [ ]: non-standard residue; d: D form. The star is where a group is joined. αMePhe(2-F) = C[C@](N)(Cc1ccccc1F)C(=O)O; γGlu = O=C(O)[C@H](CCC(=O)[*:2])N[*:1]; C14 diacid = O=C(O)CCCCCCCCCCCCC(=O)*; αMeY = C[C@](N)(Cc1ccc(O)cc1)C(=O)O; 4Pal = N[C@@H](Cc1ccncc1)C(=O)O; αMeL = CC(C)C[C@](C)(N)C(=O)O; Orn = NCCC[C@H](N)C(=O)O; AEEA = NCCOCCOCC(=O)O; Aib = CC(C)(N)C(=O)O

Key:
Type in all cases: cell-based
[1] = target: T1, hGIPR (Homo sapiens, UniProt P48546); experiment: Functional cAMP formation (HTRF) in HEK-293 clonal cells expressing hGIPR, 0.1% bovine casein, without or with 1.0% human serum albumin; settings: for Emax: read-out: hGIPR Emax, % ± SEM; for EC50: geometric mean, read-out: hGIPR EC50, nM (SEM, n)
T1 construct: expressed in transfected cells
T1 sequence (P48546 22-466): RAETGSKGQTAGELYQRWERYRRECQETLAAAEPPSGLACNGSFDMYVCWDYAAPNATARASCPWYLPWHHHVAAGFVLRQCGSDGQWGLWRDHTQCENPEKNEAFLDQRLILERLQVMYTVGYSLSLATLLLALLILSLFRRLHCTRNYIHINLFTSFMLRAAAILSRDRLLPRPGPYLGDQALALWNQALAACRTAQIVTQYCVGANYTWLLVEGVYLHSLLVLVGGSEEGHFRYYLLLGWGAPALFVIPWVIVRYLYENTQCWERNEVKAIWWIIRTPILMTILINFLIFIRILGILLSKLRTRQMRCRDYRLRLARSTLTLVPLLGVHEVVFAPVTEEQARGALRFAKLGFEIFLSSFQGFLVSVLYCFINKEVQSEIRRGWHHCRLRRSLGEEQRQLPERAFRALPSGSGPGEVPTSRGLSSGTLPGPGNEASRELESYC
Procedure, shortened: (§1)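 Cells were stimulated with peptide for 30 min at 37° C, then intracellular cAMP was measured by competitive HTRF (665/620 nm ratio) and converted to nM using a cAMP standard curve. Relative EC50 and Emax came from four-parameter logistic fits of percent maximal response against peptide concentration.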

[2] = target: T2, hGCGR (Homo sapiens, UniProt P47871); experiment: Functional cAMP formation (HTRF) in HEK-293 clonal cells expressing hGCGR, 0.1% bovine casein, without or with 1.0% human serum albumin; settings: geometric mean, read-out: hGCGR EC50, nM (SEM, n)
T2 construct: expressed in transfected cells
T2 sequence (P47871 26-477): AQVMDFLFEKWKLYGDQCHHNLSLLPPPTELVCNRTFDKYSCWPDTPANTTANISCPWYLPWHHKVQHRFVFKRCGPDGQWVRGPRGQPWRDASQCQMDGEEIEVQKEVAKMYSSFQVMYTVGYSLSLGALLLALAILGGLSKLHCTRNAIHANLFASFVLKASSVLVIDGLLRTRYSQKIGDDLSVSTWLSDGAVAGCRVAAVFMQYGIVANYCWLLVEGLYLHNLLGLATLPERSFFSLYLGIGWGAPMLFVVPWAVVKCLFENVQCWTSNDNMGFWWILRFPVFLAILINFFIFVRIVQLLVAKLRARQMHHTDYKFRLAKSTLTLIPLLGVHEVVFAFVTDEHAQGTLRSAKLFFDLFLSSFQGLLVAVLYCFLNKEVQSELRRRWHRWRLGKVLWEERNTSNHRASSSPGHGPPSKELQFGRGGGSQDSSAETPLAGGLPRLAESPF
Procedure, shortened: as §1

[3] = target: hGLP-1R (Homo sapiens, UniProt P43220); experiment: Functional cAMP formation (HTRF) in HEK-293 clonal cells expressing hGLP-1R, 0.1% bovine casein, without or with 1.0% human serum albumin; parameters: expressed in transfected cells; settings: for Emax: read-out: hGLP-1R Emax, % ± SEM; for EC50: geometric mean, read-out: hGLP-1R EC50, nM (SEM, n)
Sequence of hGLP-1R (P43220 24-463): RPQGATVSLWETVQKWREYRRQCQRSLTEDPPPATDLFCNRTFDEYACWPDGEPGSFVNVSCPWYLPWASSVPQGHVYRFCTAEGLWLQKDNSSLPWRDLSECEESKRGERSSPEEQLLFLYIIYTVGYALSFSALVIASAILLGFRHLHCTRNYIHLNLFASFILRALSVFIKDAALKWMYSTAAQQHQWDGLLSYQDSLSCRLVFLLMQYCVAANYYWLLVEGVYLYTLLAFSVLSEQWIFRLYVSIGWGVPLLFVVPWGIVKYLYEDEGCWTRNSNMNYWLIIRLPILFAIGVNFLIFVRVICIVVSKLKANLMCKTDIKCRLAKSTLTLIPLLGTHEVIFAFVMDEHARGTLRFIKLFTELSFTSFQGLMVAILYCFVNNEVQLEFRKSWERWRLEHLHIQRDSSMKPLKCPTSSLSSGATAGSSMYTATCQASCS
Procedure, shortened: as §1

[4] = HEK293, 0.1% bovine casein and 1.0% human serum albumin, 37° C., percent of maximal response to GIP(1-42)NH2
[5] = cAMP, 37° C., 0.1% bovine casein (no human serum albumin)
[6] = 0.1% bovine casein and 1.0% human serum albumin, 37° C.
[7] = HEK293, 0.1% bovine casein and 1.0% human serum albumin, 37° C., percent of maximal response to GLP-1(7-36)NH2
[8] = HEK293, percent of maximal response to GIP(1-42)NH2, 37° C., 0.1% bovine casein, arithmetic mean
[9] = cAMP, incubated at 37° C., 0.1% bovine casein (no human serum albumin)
[10] = HEK293, percent of maximal response to GLP-1(7-36)NH2, 37° C., 0.1% bovine casein, arithmetic mean

Row | SMILES | Emax [1, 4] | EC50 [1, 5] | EC50 [2, 6] | EC50 [2, 5] | Emax [3, 7] | Emax ([3]; HEK293, cAMP, 37° C., 0.1% bovine casein, percent of maximal response to GLP-1(7-36)NH2, arithmetic mean) | EC50 [3, 5] | Emax [1, 8] | EC50 [1, 9] | EC50 [2, 9] | Emax [3, 10] | EC50 [3, 6] | EC50 [3, 9] | EC50 [1, 6]
1 | CC[C@H](C)[C@H](NC(=O)[C@H](CCCN)NC(=O)[C@H](CC(=O)O)NC(=O)[C@H](CC(C)C)NC(=O)[C@](C)(CC(C)C)NC(=O)[C@@H](NC(=O)C(C)(C)NC(=O)[C@H](Cc1ccncc1)NC(=O)[C@H](CC(=O)O)NC(=O)[C@H](CO)NC(=O)[C@@H](NC(=O)[C@](C)(Cc1ccccc1F)NC(=O)[C@@H](NC(=O)CNC(=O)[C@H](CCC(=O)O)NC(=O)C(C)(C)NC(=O)[C@@H](N)Cc1ccc(O)cc1)[C@@H](C)O)[C@@H](C)O)[C@@H](C)CC)C(=O)N[C@@H](C)C(=O)N[C@@H](CCC(N)=O)C(=O)NC(C)(C)C(=O)N[C@@H](CCCN)C(=O)N[C@@H](Cc1ccccc1)C(=O)N[C@H](C(=O)N[C@@H](CCCCNC(=O)COCCOCCNC(=O)COCCOCCNC(=O)CC[C@H](NC(=O)CCCCCCCCCCCCC(=O)O)C(=O)O)C(=O)N[C@@](C)(Cc1ccc(O)cc1)C(=O)N[C@@H](CC(C)C)C(=O)N[C@H](C(=O)N[C@@H](CCCCNC(=O)COCCOCCNC(=O)COCCOCCNC(=O)CC[C@H](NC(=O)CCCCCCCCCCCCC(=O)O)C(=O)O)C(=O)NCC(=O)NCC(=O)N1CCC[C@H]1C(=O)N[C@@H](CO)C(=O)N[C@@H](CO)C(=O)NCC(=O)N[C@@H](C)C(=O)N1CCC[C@H]1C(=O)N1CCC[C@H]1C(=O)N1CCC[C@H]1C(=O)N[C@@H](CO)C(N)=O)[C@@H](C)CC)[C@@H](C)CC [Example 315] (H-Y[Aib]EGT[αMePhe(2-F)]TSD[4Pal][Aib]I[αMeL]LD[Orn]IAQ[Aib][Orn]FIK([AEEA-AEEA-γGlu-C14 diacid])[αMeY]LIK([AEEA-AEEA-γGlu-C14 diacid])GGPSSGAPPPS-NH2) | 89.2% | 0.0245 nM | > 9950 nM | > 9950 nM | 93.5% | 98.9% | 0.376 nM | – | – | – | – | – | – | –
2 | CCCCCCCCCCCC(=O)N[C@@H](CCC(=O)NCCOCCOCC(=O)NCCOCCOCC(=O)NCCCC[C@H](NC(=O)CNC(=O)CNC(=O)[C@H](CCC(=O)O)NC(=O)[C@@H](NC(=O)[C@H](CC(C)C)NC(=O)[C@](C)(Cc1ccc(O)cc1)NC(=O)[C@@H](CCC(=O)O)NC(=O)[C@@H](NC(=O)[C@H](Cc1ccccc1)NC(=O)[C@H](CCC(=O)O)NC(=O)C(C)(C)NC(=O)[C@H](CCC(N)=O)NC(=O)[C@H](C)NC(=O)[C@H](CCCCNC(=O)COCCOCCNC(=O)COCCOCCNC(=O)CC[C@H](NC(=O)CCCCCCCCCCC)C(=O)O)NC(=O)[C@H](CCCN)NC(=O)[C@H](CC(=O)O)NC(=O)[C@H](CC(C)C)NC(=O)[C@](C)(CC(C)C)NC(=O)[C@@H](NC(=O)C(C)(C)NC(=O)[C@@H](NC(=O)[C@H](CC(=O)O)NC(=O)[C@H](CO)NC(=O)[C@@H](NC(=O)[C@](C)(Cc1ccccc1)NC(=O)[C@@H](NC(=O)CNC(=O)[C@H](CCC(=O)O)NC(=O)C(C)(C)NC(=O)[C@@H](N)Cc1ccc(O)cc1)[C@@H](C)O)[C@@H](C)O)C(C)C)[C@@H](C)CC)[C@@H](C)CC)[C@@H](C)CC)C(=O)N[C@@H](CO)C(=O)N[C@@H](CO)C(=O)NCC(=O)N[C@@H](C)C(=O)N1CCC[C@H]1C(=O)N1CCC[C@H]1C(=O)N1CCC[C@H]1C(=O)N[C@@H](CO)C(N)=O)C(=O)O [Example 176] | – | – | – | – | – | – | – | 89.3% | 0.0485 nM | > 9950 nM | 98.9% | – | – | –
3 | CC[C@H](C)[C@H](NC(=O)[C@H](CCCN)NC(=O)[C@H](CC(=O)O)NC(=O)[C@H](CC(C)C)NC(=O)[C@](C)(CC(C)C)NC(=O)[C@@H](NC(=O)[C@H](CO)NC(=O)[C@H](Cc1ccncc1)NC(=O)[C@H](CC(=O)O)NC(=O)[C@H](CO)NC(=O)[C@@H](NC(=O)[C@](C)(Cc1ccccc1F)NC(=O)[C@@H](NC(=O)CNC(=O)[C@H](CCC(=O)O)NC(=O)C(C)(C)NC(=O)[C@@H](N)Cc1ccc(O)cc1)[C@@H](C)O)[C@@H](C)O)[C@@H](C)CC)C(=O)N[C@@H](C)C(=O)N[C@@H](CCC(N)=O)C(=O)NC(C)(C)C(=O)N[C@@H](CCC(=O)O)C(=O)N[C@@H](Cc1ccccc1)C(=O)N[C@H](C(=O)N[C@@H](CCCCNC(=O)COCCOCCNC(=O)COCCOCCNC(=O)CCCCCCCCCCCCC(=O)O)C(=O)N[C@@](C)(Cc1ccc(O)cc1)C(=O)N[C@@H](CC(C)C)C(=O)N[C@H](C(=O)N[C@@H](CCC(=O)O)C(=O)NCC(=O)NCC(=O)N[C@@H](CCCCNC(=O)COCCOCCNC(=O)COCCOCCNC(=O)CCCCCCCCCCCCC(=O)O)C(=O)N[C@@H](CO)C(=O)N[C@@H](CO)C(=O)NCC(=O)N[C@@H](C)C(=O)N1CCC[C@H]1C(=O)N1CCC[C@H]1C(=O)N1CCC[C@H]1C(=O)N[C@@H](CO)C(N)=O)[C@@H](C)CC)[C@@H](C)CC [Example 193] | 92.2 ± 0.24% | – | > 9950 nM | – | – | – | – | 97.2 ± 4.63% | 0.0201 nM | > 9950 nM | – | 24.3 nM | 0.382 nM | –
4 | CC[C@H](C)[C@H](NC(=O)[C@H](CCCN)NC(=O)[C@H](CC(=O)O)NC(=O)[C@H](CC(C)C)NC(=O)[C@](C)(CC(C)C)NC(=O)[C@@H](NC(=O)[C@H](CO)NC(=O)[C@H](Cc1ccncc1)NC(=O)[C@H](CC(=O)O)NC(=O)[C@H](CO)NC(=O)[C@@H](NC(=O)[C@](C)(Cc1ccccc1F)NC(=O)[C@@H](NC(=O)CNC(=O)[C@H](CCC(=O)O)NC(=O)C(C)(C)NC(=O)[C@@H](N)Cc1ccc(O)cc1)[C@@H](C)O)[C@@H](C)O)[C@@H](C)CC)C(=O)N[C@@H](C)C(=O)N[C@@H](CCC(N)=O)C(=O)NC(C)(C)C(=O)N[C@@H](CCCCNC(=O)COCCOCCNC(=O)COCCOCCNC(=O)CC[C@H](NC(=O)CCCCCCCCCCCCC(=O)O)C(=O)O)C(=O)N[C@@H](Cc1ccccc1)C(=O)N[C@H](C(=O)N[C@H](CCC(=O)O)C(=O)N[C@@](C)(Cc1ccc(O)cc1)C(=O)N[C@@H](CC(C)C)C(=O)N[C@H](C(=O)N[C@@H](CCC(=O)O)C(=O)NCC(=O)NCC(=O)N[C@@H](CCCCNC(=O)COCCOCCNC(=O)COCCOCCNC(=O)CC[C@H](NC(=O)CCCCCCCCCCCCC(=O)O)C(=O)O)C(=O)N[C@@H](CO)C(=O)N[C@@H](CO)C(=O)NCC(=O)N[C@@H](C)C(=O)N1CCC[C@H]1C(=O)N1CCC[C@H]1C(=O)N1CCC[C@H]1C(=O)N[C@@H](CO)C(N)=O)[C@@H](C)CC)[C@@H](C)CC [Example 74] | 86.7% | – | > 9950 nM | – | – | – | – | 93.3 ± 2.89% | 0.0156 nM | > 9950 nM | – | 59.5 nM | 0.334 nM | 2.19 nM
5 | CC[C@H](C)[C@H](NC(=O)[C@H](CC(C)C)NC(=O)[C@](C)(Cc1ccc(O)cc1)NC(=O)[C@@H](CCC(=O)O)NC(=O)[C@@H](NC(=O)[C@H](Cc1ccccc1F)NC(=O)[C@H](CCC(=O)O)NC(=O)C(C)(C)NC(=O)[C@H](CCC(N)=O)NC(=O)[C@H](C)NC(=O)[C@H](CCCCNC(=O)COCCOCCNC(=O)COCCOCCNC(=O)CC[C@H](NC(=O)CCCCCCCCCCCCC(=O)O)C(=O)O)NC(=O)[C@H](CCCN)NC(=O)[C@H](CC(=O)O)NC(=O)[C@H](CC(C)C)NC(=O)[C@](C)(CC(C)C)NC(=O)[C@@H](NC(=O)[C@H](CO)NC(=O)[C@H](Cc1ccncc1)NC(=O)[C@H](CC(=O)O)NC(=O)[C@H](CO)NC(=O)[C@@H](NC(=O)[C@](C)(Cc1ccccc1F)NC(=O)[C@@H](NC(=O)CNC(=O)[C@H](CCC(=O)O)NC(=O)C(C)(C)NC(=O)[C@@H](N)Cc1ccc(O)cc1)[C@@H](C)O)[C@@H](C)O)[C@@H](C)CC)[C@@H](C)CC)C(=O)N[C@@H](CCC(=O)O)C(=O)NCC(=O)NCC(=O)N[C@@H](CCCCNC(=O)COCCOCCNC(=O)COCCOCCNC(=O)CC[C@H](NC(=O)CCCCCCCCCCCCC(=O)O)C(=O)O)C(=O)N[C@@H](CO)C(=O)N[C@@H](CO)C(=O)NCC(=O)N[C@@H](C)C(=O)N1CCC[C@H]1C(=O)N1CCC[C@H]1C(=O)N1CCC[C@H]1C(=O)N[C@@H](CO)C(N)=O [Example 63] | – | – | > 9950 nM | – | 98% | – | – | – | 0.0176 nM | > 9950 nM | 90.6% | – | – | 0.771 nM
